Test systems include HS 578T breast; SK-MEL-2 melanoma; HCT-15 colon; SNB-19 CNS; SK-MEL-5 melanoma; HL-60(TB) leukemia; HT29 colon; NCI-H460 lung; SF-295 CNS; LOX IMVI melanoma.
Assay in all cases: NCI tumour cell line growth inhibition, 48 h

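48-hour exposure; five concentrations; linearly interpolated endpoints. GI50 = concentration required for 50% inhibition of growth. TGI: concentration producing complete growth inhibition.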

Turning to `COc1ccc(C(=O)/C=C/c2c(C(F)(F)F)nc3sccn23)cc1OC`, the GI50 in the assay with HS 578T breast is 2.51 µM; in the assay on SK-MEL-2 melanoma, 4.08 µM; in the assay on HCT-15 colon, 2.54 µM; in the assay on SNB-19 CNS, 4.25 µM; with SK-MEL-5 melanoma, 4.2 µM; in the assay on HL-60(TB) leukemia, 1 µM. For the same compound, the GI50 is 2.01 µM with HT29 colon, 1.94 µM with NCI-H460 lung and 3.14 µM in the assay with SF-295 CNS. In addition, the TGI in the assay on HS 578T breast was 16.8 µM; with SK-MEL-2 melanoma, 92.5 µM; in the assay with HCT-15 colon, > 100 µM; in the assay with SNB-19 CNS, > 100 µM; with SK-MEL-5 melanoma it was > 100 µM; in the assay on HL-60(TB) leukemia, 3.86 µM. Further, the TGI is > 100 µM in the assay on HT29 colon, 6.65 µM in the assay on NCI-H460 lung and 22.6 µM with SF-295 CNS.
For `c1cc(CCN2CCCCC2)ccn1`, the TGI with HS 578T breast, with SK-MEL-2 melanoma, in the assay with HCT-15 colon, with SNB-19 CNS, in the assay on SK-MEL-5 melanoma and in the assay with HT29 colon was > 100 µM each time. The TGI in the assay on NCI-H460 lung, with SF-295 CNS and in the assay on LOX IMVI melanoma was > 100 µM each time.
On to `CC(C)(O)C1CCC(Nc2ccc3ncc(-c4cccc(C(F)(F)F)c4)n3n2)CC1` (stereo not drawn), for which the GI50 is 1.59 µM in the assay on HS 578T breast; 2.13 µM in the assay on SK-MEL-2 melanoma; 2.17 µM in the assay with HCT-15 colon; 4.36 µM with SNB-19 CNS; 2.23 µM in the assay with HT29 colon; 2.7 µM in the assay on NCI-H460 lung. Besides, the figures for the GI50 in the assay on SF-295 CNS and with LOX IMVI melanoma were 1.66 µM and 1.56 µM, respectively. Further, the TGI in the assay with HS 578T breast turned out to be 4.67 µM; with SK-MEL-2 melanoma, 4.82 µM; in the assay with HCT-15 colon, 11.3 µM; with SNB-19 CNS, 21.8 µM; in the assay with HT29 colon it was 12 µM; in the assay on NCI-H460 lung, 12.1 µM. The results for the TGI in the assay with SF-295 CNS and with LOX IMVI melanoma were 4.67 µM and 4.23 µM, respectively.
Regarding `COc1ccn2c(C(C)=O)cc(C(=O)c3ccc4c(c3)Sc3ccccc3N4)c2c1`, the GI50 in the assay on HS 578T breast was 0.182 µM; with HCT-15 colon, 0.0982 µM; with SNB-19 CNS, 0.158 µM; with SK-MEL-5 melanoma, 0.104 µM; in the assay with HT29 colon it was 0.0918 µM; in the assay with NCI-H460 lung, 0.113 µM. Also, the GI50 in the assay with LOX IMVI melanoma was 0.15 µM. Also, the TGI in the assay with HS 578T breast was > 100 µM; in the assay on SK-MEL-2 melanoma, > 100 µM; with SNB-19 CNS it was > 100 µM; in the assay on SK-MEL-5 melanoma, 0.449 µM; in the assay with HT29 colon, 0.351 µM; in the assay on NCI-H460 lung, > 38 µM. For the same compound, the TGI in the assay on LOX IMVI melanoma is > 100 µM.
For the compound `N#Cc1c(N)nc(N2CCOCC2)c(C#N)c1-c1ccc(Cl)cc1`, the GI50 was 40.6 µM in the assay on HS 578T breast; 18.1 µM with SK-MEL-2 melanoma; 26.9 µM in the assay with HCT-15 colon; 28.1 µM in the assay with SNB-19 CNS; 27.4 µM with SK-MEL-5 melanoma; 43.3 µM with HT29 colon. Further, the GI50 with NCI-H460 lung was 33.2 µM; in the assay on SF-295 CNS, 44.8 µM; in the assay with LOX IMVI melanoma, 29.2 µM. The TGI in the assay with HS 578T breast is > 100 µM; in the assay with SK-MEL-2 melanoma it was 56.2 µM; in the assay with HCT-15 colon, > 100 µM; with SNB-19 CNS, > 100 µM; with SK-MEL-5 melanoma, > 100 µM; with HT29 colon it was > 100 µM. Also, the TGI in the assay with NCI-H460 lung, in the assay on SF-295 CNS and with LOX IMVI melanoma was > 100 µM each time.
As to `CCCCCCC#Cc1ccccc1C#CCO`, the GI50 in the assay with HS 578T breast was 17.2 µM; in the assay on SK-MEL-2 melanoma, 18.9 µM; with HCT-15 colon, 35.9 µM; with SNB-19 CNS, 16.3 µM; in the assay with SK-MEL-5 melanoma it was 16.8 µM; with HL-60(TB) leukemia it was 38.7 µM. Further, the GI50 in the assay on NCI-H460 lung is 32.8 µM; in the assay on SF-295 CNS it was 16.2 µM; with LOX IMVI melanoma it was 20.3 µM. Besides, the TGI is 39.4 µM in the assay on HS 578T breast; 39.8 µM with SK-MEL-2 melanoma; > 100 µM in the assay on HCT-15 colon; 31.7 µM with SNB-19 CNS; 30.8 µM in the assay on SK-MEL-5 melanoma; > 100 µM in the assay on HL-60(TB) leukemia. The TGI is > 100 µM with NCI-H460 lung, 30.2 µM in the assay on SF-295 CNS and 49.3 µM in the assay on LOX IMVI melanoma.
`COc1cc2c3c(n(CCCNCC(OC)OC)c(=O)c2cc1OC)-c1cc2c(cc1C3=O)OCO2`: the GI50 in the assay on HS 578T breast is 10.4 µM; with SK-MEL-2 melanoma it was > 49.1 µM; in the assay on HCT-15 colon, 17.3 µM; with SNB-19 CNS it was 10.2 µM; in the assay on HL-60(TB) leukemia it was 2.6 µM; in the assay with HT29 colon it was 4.99 µM. The GI50 in the assay on NCI-H460 lung was 0.0972 µM; with SF-295 CNS, 0.303 µM; with LOX IMVI melanoma, 1.46 µM. For the same compound, the TGI is > 29.3 µM in the assay on HS 578T breast; > 73.5 µM in the assay with SK-MEL-2 melanoma; > 100 µM in the assay on HCT-15 colon; > 100 µM with SNB-19 CNS; > 28.3 µM with HL-60(TB) leukemia; 32.2 µM in the assay on HT29 colon. The results for the TGI in the assay on NCI-H460 lung, with SF-295 CNS and in the assay with LOX IMVI melanoma were 20.5 µM, 49.4 µM and > 29.8 µM, respectively.
With `Cc1ccc(NC(=O)c2cc3ccccc3c(N=Nc3ccccc3O)c2O)c(C)c1`, the TGI came to 8.29 µM with HS 578T breast; 14.9 µM in the assay with SK-MEL-2 melanoma; 11.1 µM in the assay with HCT-15 colon; 6.61 µM in the assay on SNB-19 CNS; 3.35 µM in the assay with SK-MEL-5 melanoma; 4.09 µM with HL-60(TB) leukemia. In addition, the TGI in the assay with HT29 colon is 13.8 µM; in the assay with NCI-H460 lung, 12.1 µM; in the assay with SF-295 CNS it was 10.5 µM.
Consider `CC(C)C[C@H](NC(=O)[C@H]1O[C@@H]1C(=O)O)C(=O)NCCc1ccc(O)cc1`, for which the GI50 in the assay with HS 578T breast, in the assay with SK-MEL-2 melanoma, with HCT-15 colon, in the assay with SNB-19 CNS, with SK-MEL-5 melanoma and with HT29 colon was > 100 µM each time. Also, the GI50 was > 100 µM in the assay with NCI-H460 lung, > 100 µM in the assay on SF-295 CNS and 74.1 µM in the assay with LOX IMVI melanoma. In addition, the TGI in the assay on HS 578T breast, in the assay on SK-MEL-2 melanoma, with HCT-15 colon, in the assay with SNB-19 CNS, in the assay with SK-MEL-5 melanoma and with HT29 colon was > 100 µM in each case. The TGI in the assay on NCI-H460 lung, in the assay on SF-295 CNS and in the assay on LOX IMVI melanoma was > 100 µM throughout.

Source of the values: PubChem BioAssay (NCI).
